The test system of data set [1] is mice spleen lymphocyte. Kind of data set: Stimulating lymphocyte proliferation in vitro (MTT method). The data set is classed as cell-based. The settings on record: mice spleen lymphocyte suspension, 68 h + 4 h MTT, OD 570 nm; chromatography fractions screened; values only in figures; listed as component 4. The protocol:
1) Stimulating Lymphocyte Proliferation in vitro
Culturing Cells • 1 Preparing Spleen Lymphocyte Suspension:
Remove out the mice spleen under sterile condition, separate lymphocyte by lymphocyte separation medium, regulate the cell concentration to 1×10^6/ml with complete 1640 culture solution. • 2 Experiment Arrangement:
Set control group and experiment group separately to identify the activity of stimulating spleen lymphocyte proliferation by every component. • 3. Experiment Method:
Add 100 μL mice spleen lymphocyte suspension (1×10^6/mL) to 96 well cultured plates. Add 100 μL saline/sample to control group and experiment group separately. Mix to homogenous gently, culture in incubator for 68 h at 37° C. under 5% CO2. Add 20 μl MTT to every well under sterile condition, Mix to homogenous gently, continue to culture for 4 h, add 100 μl dimethyl sulfoxide to every well, keep at room temperature for 10 min, then determine OD of every well by ELISA at 570 nm. • 4. Data Processing
The spleen lymphocyte proliferation rate of experiment group is calculated by the following formula: […]
The value of P is calculated by variance analysis, and significant difference is calculate by T test.
In general terms: Tetrazolium assays rely on reduction of a dye to a coloured formazan, in cell work by metabolically active cells.

Data set [2] is described as follows: Isoelectric point by CIEF (capillary isoelectric focusing). The format is physicochemical. The settings on record: determined by CIEF. An excerpt:
3) Determining isoelectric point of immuno-modulating polypeptide by CIEF.
The foresaid methods 2)-5) are the normal methods known as those skilled in the art.

Entries after “also recorded” stand apart in the source; their conditions may differ.

Take “Tyr-X-Phe-Leu-Gly-Leu-Pro-Gly-X-Thr [immuno-modulating polypeptide]”: the “activity determined by stimulating lymphocyte proliferation in vitro” value in data set [1] is recorded as “high-purity inmmuno-modulating polypeptide; also recorded: high-purity immuno-modulating polypeptide”. The same substance came in with an isoelectric point in data set [2] of 3.82.
